Consider 54 compounds from US20220306630A1, “AGONISTS OF ROR GAMMAt” (BRISTOL-MYERS SQUIBB COMPANY, priority 2019, published 2022).

SMILES strings stand for the structures.

The term EC50 denotes the midpoint of the concentration-response curve.

The assay addresses T1, RORgT (Homo sapiens, UniProt P51449).
T1 construct: Gal4 (fusion partner); expressed in transfected cells; host or cells: engineered Jurkat cells (Jurkat pEx/Gal/hRORγ CLBD/HYG pG5luc/blast)
T1 sequence (P51449 267-516): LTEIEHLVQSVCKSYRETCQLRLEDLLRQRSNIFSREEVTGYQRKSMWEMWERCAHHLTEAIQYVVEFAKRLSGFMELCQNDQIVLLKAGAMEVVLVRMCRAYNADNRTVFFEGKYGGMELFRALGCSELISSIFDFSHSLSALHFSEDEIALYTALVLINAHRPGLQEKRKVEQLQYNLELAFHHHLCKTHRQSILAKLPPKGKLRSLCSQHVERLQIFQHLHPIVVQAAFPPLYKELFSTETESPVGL
In words: RORgT Gal4 Luciferase Reporter Gene Assay. The following applies: engineered Jurkat cells overexpressing RORgT (LBD or full length) with Gal4 Luc reporter; 18 hours at 37° C.; 40 μM to 0.67 nM; read-out: RORg_GAL4 EC50. The assay is classed as cell-based. On the procedure:
The compound and the cells were incubated for 18 hours at 37° C. in a cell culture incubator. Cells were then lysed with 15 uL of Steady-Glo Luciferase Assay reagent (Promega EZ550), followed by centrifuging the assay plates at 1500 RPM for 1 minute. Subsequently, the plates were read on the Envision (PerkinElmer). The inhibition of constitutive activity of RORgT achieved by graded concentrations of compound was calculated as a percentage of the luminescence signal window reduction over a control compound.
For orientation: A reporter such as luciferase makes a cellular process visible.
Turning to `C=C(c1cc(Oc2c(Cl)cc(NC(=O)CC3CCN(S(C)(=O)=O)CC3)cc2Cl)cnc1OC)C(F)(F)F` [Example 133], the EC50 amounted to 4.6 nM.
On to `CC(C)c1cc(F)cc(Oc2c(Cl)ccc(CNC(=O)c3ccc(S(C)(=O)=O)cc3)c2Cl)c1` [Example 149], for which the half-maximal effective concentration (EC50) worked out at 15 nM.
On to `CC(C)(F)c1cc(Oc2c(Cl)cc(NC(=O)CC3CCN(S(C)(=O)=O)CC3)cc2Cl)cnc1OC(F)F` [Example 29, N-(3,5-dichloro-4-((6-(difluoromethoxy)-5-(2-fluoropropan-2-yl)pyridin-3-yl)oxy)phenyl)-2-(1-(methylsulfonyl)piperidin-4-yl)acetamide], for which the EC50 came to 5.8 nM.
For `COc1ccc(Oc2c(Cl)ccc(C(=O)NC(C)c3cn(C)nc3C)c2Cl)cc1C(C)C` (stereo not drawn) [Example 204], the EC50 came to 40 nM.
Consider `COc1ncc(Oc2c(Cl)ccc(CNC(=O)C3CCN(S(C)(=O)=O)CC3)c2Cl)cc1C(C)C` [Example 144], for which the EC50 came out at 6.6 nM.
For `COc1ccc(Oc2c(Cl)ccc(C(=O)NCc3cnc(C)cn3)c2Cl)cc1C(C)C` [Example 206], the 50% effective concentration (EC50) was 100 nM.
Take `COc1ccc(Oc2c(Cl)ccc(C(=O)NCCn3ccnc3)c2Cl)cc1C(C)C` [Example 19, N-(2-(1H-imidazol-1-yl)ethyl)-2,4-dichloro-3-(3-isomethoxyphenoxy)benzamide]: the concentration for a half-maximal effect (EC50) was found to be 396 nM.
The value for `COc1ccc(Oc2c(Cl)ccc(C(=O)NCc3cccc(Cl)c3)c2Cl)cc1C(C)C` [Example 198] was 872 nM; that for `COc1ccc(Oc2c(Cl)cc(N3CC(CNC(=O)CS(C)(=O)=O)OC3=O)cc2Cl)cc1C(C)C` (stereo not drawn) [Example 253] was 477 nM; that for `COc1ccc(Oc2c(Cl)ccc(CNC(=O)CN3CCN(S(N)(=O)=O)CC3)c2Cl)cc1C(C)C` [Example 90] was 13 nM.
In the case of `CC(C)c1cc(Oc2c(Cl)cc(NC(=O)CC3CCN(S(C)(=O)=O)CC3)cc2Cl)ccc1F` [Example 266], the EC50 was determined as 11 nM.
Regarding `COc1ccc(Oc2c(Cl)ccc(C(=O)NC[C@H]3CC[C@H](C(=O)OC)CC3)c2Cl)cc1C(C)C` [Example 69], the EC50 was determined as 481 nM.
The value for `COc1ccc(Oc2c(Cl)cc(NC(=O)CC3CCCN(S(=O)(=O)C(C)C)C3)cc2Cl)cc1C(C)C` (stereo not drawn) [Example 316] was 943 nM; that for `COc1ccc(Oc2c(Cl)cc(NC(=O)C3(c4cccnc4)CCCCC3)cc2Cl)cc1C(C)C` [Example 348] was 372 nM; that for `COc1ccc(Oc2c(Cl)cc(NC(=O)CCC(N)=O)cc2Cl)cc1C(C)C` [Example 281] was 375 nM.
On to `COc1ccc(Oc2c(Cl)cc(NC(=O)CN3CCN(S(=O)(=O)C4CC4)CC3)cc2Cl)cc1C(C)C` [Example 315], for which the EC50 turned out to be 88 nM.
Take `COc1ccc(Oc2c(Cl)cc(NC(=O)Cc3cncn3C)cc2Cl)cc1C(C)C` [Example 248]: the EC50 turned out to be 2250 nM.
In the case of `COc1ccc(Oc2c(Cl)cc(NC(=O)CCCc3ccccc3)cc2Cl)cc1C(C)C` [Example 285], the concentration for a half-maximal effect (EC50) came out at 284 nM.
Consider `COc1ccc(Oc2c(Cl)cc(NC(=O)Cc3cccnc3)cc2Cl)cc1C1CC1` [Example 37, N-(3,5-dichloro-4-(3-cyclopropyl-4-methoxyphenoxy)phenyl)-2-(pyridin-3-yl)acetamide], for which the concentration giving a half-maximal response (EC50) was determined as 1120 nM.
With `CC(C)c1cc(F)cc(Oc2c(Cl)ccc(C(=O)NCc3ccc(S(N)(=O)=O)cc3)c2Cl)c1` [Example 16, 2,4-dichloro-3-(3-fluoro-5-isopropylphenoxy)-N-(4-sulfamoylbenzyl)benzamide], the EC50 was determined as 6.1 nM.
Then `CCS(=O)(=O)Nc1cc(Cl)c(Oc2ccc(OC)c(C(C)C)c2)c(Cl)c1` [Example 33, N-(3,5-dichloro-4-(3-isopropyl-4-methoxyphenoxy)phenyl)ethanesulfonamide], with 4280 nM; and `COc1ccc(Oc2c(Cl)ccc(CNS(=O)(=O)c3cccnc3)c2Cl)cc1C(C)C` [Example 21, N-(2,4-dichloro-3-(3-isopropyl-4-methoxyphenoxy)benzyl)pyridine-3-sulfonamide], with 650 nM.
As for `CC(C)(F)c1cc(F)cc(Oc2c(Cl)ccc(C(=O)NCc3ccc(S(C)(=O)=O)cc3)c2Cl)c1` [Example 338], the EC50 is 1.8 nM.
Consider `COc1ccc(Oc2c(Cl)cc(NC(=O)CC3CCN(S(N)(=O)=O)CC3)cc2Cl)cc1C(C)C` [Example 46, N-(3,5-dichloro-4-(3-isopropyl-4-methoxyphenoxy)phenyl)-2-(1-sulfamoylpiperidin-4-yl)acetamide], for which the concentration giving a half-maximal response (EC50) was 438 nM.
The value for `COC(=O)CCC(=O)Nc1cc(Cl)c(Oc2ccc(OC)c(C(C)C)c2)c(Cl)c1` [Example 295] was 308 nM; that for `COc1ccc(Oc2c(Cl)ccc(C(=O)n3nc(C)cc3CN)c2Cl)cc1C(C)C` [Example 181] was 214 nM.
Then `COc1ccc(Oc2c(Cl)cc(NC(=O)Cc3cncc(S(C)(=O)=O)c3)cc2Cl)cc1C(C)C` [Example 242], with 40 nM; and `CCS(=O)(=O)NC1CCN(CC(=O)Nc2cc(Cl)c(Oc3ccc(OC)c(C(C)C)c3)c(Cl)c2)CC1` [Example 173], with 265 nM; and `COc1ccc(Oc2c(Cl)cc(N3CC(CO)OC3=O)cc2Cl)cc1C(C)C` (stereo not drawn) [Example 10, 3-(3,5-dichloro-4-(3-isopropyl-4-methoxyphenoxy)phenyl)-5-(hydroxymethyl) oxazolidin-2-one], with 2120 nM.
The value for `CCS(=O)(=O)NC1CN(CC(=O)Nc2cc(Cl)c(Oc3ccc(OC)c(C(C)C)c3)c(Cl)c2)C1` [Example 162] was 220 nM; that for `COc1ccc(Oc2c(Cl)cc(NS(=O)(=O)C3CC3)cc2Cl)cc1C(C)C` [Example 304] was 1080 nM.
Regarding `COc1ccc(Oc2c(Cl)cc(NC(=O)Cc3ccc(C)nc3)cc2Cl)cc1C(C)C` [Example 344], the EC50 worked out at 75 nM.
Then `COc1ccc(Oc2c(Cl)cc(NC(=O)CN3CCC[C@@H](NS(=O)(=O)C4CC4)C3)cc2Cl)cc1C(C)C` [Example 166], with 424 nM; and `COc1ncc(Oc2c(Cl)ccc(NC(=O)Cc3cccc(S(C)(=O)=O)c3)c2Cl)cc1C(C)C` [Example 141], with 182 nM.
Then `COC(=O)NCC1CN(c2cc(Cl)c(Oc3ccc(OC)c(C(C)C)c3)c(Cl)c2)C(=O)O1` (stereo not drawn) [Example 251], with 433 nM.
The value for `CCS(=O)(=O)N1CCN(CC(=O)Nc2cc(Cl)c(Oc3ccc(OC)c(C(C)C)c3)c(Cl)c2)CC1` [Example 313] was 32 nM.
For the compound `CC(C)c1cc(F)cc(Oc2c(Cl)cc(NC(=O)OC3CCCN(S(C)(=O)=O)C3)cc2Cl)c1` (stereo not drawn) [Example 25, 1-(methylsulfonyl)piperidin-3-yl (3,5-dichloro-4-(3-fluoro-5-isopropylphenoxy)phenyl)carbamate], the EC50 is 626 nM.
For the compound `COc1ccc(Oc2c(Cl)cc(NC(=O)Cc3ccc(S(C)(=O)=O)cc3)cc2Cl)cc1C(C)C` [Example 38, N-(3,5-dichloro-4-(3-isopropyl-4-methoxyphenoxy)phenyl)-2-(4-(methylsulfonyl)phenyl)acetamide], the EC50 turned out to be 30 nM.
Then `COc1ccc(Oc2c(Cl)cc(C(=O)NCc3ccc(S(C)(=O)=O)cc3)cc2Cl)cc1C(C)C` [Example 158], with 499 nM; and `COc1ccc(Oc2c(Cl)ccc(C(=O)NCCc3cccnc3)c2Cl)cc1C(C)C` [Example 76], with 922 nM.
The value for `CC(c1cc(F)cc(Oc2c(Cl)ccc(C(=O)N3CCC4(CC3)CN(S(C)(=O)=O)C4)c2Cl)c1)C(F)(F)F` (stereo not drawn) [Example 357] was 11 nM; that for `CCS(=O)(=O)c1ccc(CC(=O)Nc2cc(Cl)c(Oc3ccc(OC)c(C(C)C)c3)c(Cl)c2)cc1` [Example 307] was 16 nM.
Regarding `COc1ccc(Oc2c(Cl)ccc(C(=O)NCC3CCN(S(C)(=O)=O)CC3)c2Cl)cc1C(C)C` [Example 86], the half-maximal effective concentration (EC50) stood at 12 nM.
As for `COc1ccc(Oc2c(Cl)cc(N)cc2Cl)cc1C(C)C` [Example 350], the EC50 amounted to 2050 nM.
The value for `COc1ccc(Oc2c(Cl)cc(NC(=O)CC3CCCN(S(N)(=O)=O)C3)cc2Cl)cc1C(C)C` (stereo not drawn) [Example 314] was 844 nM.
Then `COc1ccc(Oc2c(Cl)ccc(CNC(=O)C3CCN(S(C)(=O)=O)CC3)c2Cl)cc1C(C)C` [Example 213], with 19 nM; and `COc1ncc(Oc2c(Cl)cc(NC(=O)CC3CCN(C(=O)C(F)(F)F)CC3)cc2Cl)cc1C(C)C` [Example 74], with 49 nM; and `CC(C)c1cc(Oc2c(Cl)ccc(C(=O)NCc3ccc(S(C)(=O)=O)cc3)c2Cl)ccc1F` [Example 131], with 2.7 nM.
Then `COc1ccc(Oc2c(Cl)cc(NC(=O)Cc3cnc(S(C)(=O)=O)cn3)cc2Cl)cc1C(C)C` [Example 243], with 1280 nM; and `COc1ccc(Oc2c(Cl)cc(NC(=O)c3c[nH]c4ncccc34)cc2Cl)cc1C(C)C` [Example 349], with 1370 nM; and `COc1ccc(Oc2c(Cl)ccc(CNC(=O)CN3CCN(S(C)(=O)=O)CC3)c2Cl)cc1C(C)C` [Example 186], with 90 nM.
Consider `COc1ccc(Oc2c(Cl)ccc(CNC(=O)Cc3cccc(S(C)(=O)=O)c3)c2Cl)cc1C(C)C` [Example 87], for which the EC50 amounted to 541 nM.
`COc1ccc(Oc2c(F)cc(NC(=O)Cc3cccnc3)cc2F)cc1CC(C)C` [Example 312]: the 50% effective concentration (EC50) came out at 1440 nM.
Then `COc1ccc(Oc2c(Cl)ccc(C(=O)N3CCCCC3)c2Cl)cc1C(C)C` [Example 184], with 246 nM.
